How the values were obtained:
[1] = molecular target: GDP-bound KRAS wild-type protein (Homo sapiens, UniProt P01116); experiment: Binding to KRAS by surface plasmon resonance (SPR), Single Cycle Kinetics; conditions: SPR, Single Cycle Kinetics, 1:1 binding model; GDP-bound KRAS wild-type protein; read-out: KRAS KD
[2] = molecular target: GDP-bound NRAS wild-type protein (Homo sapiens, UniProt P01111); experiment: Binding to NRAS by surface plasmon resonance (SPR), Single Cycle Kinetics; conditions: SPR; GDP-bound NRAS wild-type protein vs GDP-bound KRAS wild-type protein; KD ratio class
[3] = molecular target: GDP-bound HRAS wild-type protein (Homo sapiens, UniProt P01112); experiment: Binding to HRAS by surface plasmon resonance (SPR), Single Cycle Kinetics; conditions: SPR; GDP-bound HRAS wild-type protein vs GDP-bound KRAS wild-type protein; KD ratio class
Chain of GDP-bound HRAS wild-type protein (P01112 whole entry): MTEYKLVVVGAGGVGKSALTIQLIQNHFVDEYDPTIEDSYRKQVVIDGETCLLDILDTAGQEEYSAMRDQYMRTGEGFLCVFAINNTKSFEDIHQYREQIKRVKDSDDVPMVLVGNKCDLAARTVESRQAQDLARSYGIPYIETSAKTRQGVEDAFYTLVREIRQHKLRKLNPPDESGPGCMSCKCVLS

Chain of GDP-bound KRAS wild-type protein (P01116 whole entry): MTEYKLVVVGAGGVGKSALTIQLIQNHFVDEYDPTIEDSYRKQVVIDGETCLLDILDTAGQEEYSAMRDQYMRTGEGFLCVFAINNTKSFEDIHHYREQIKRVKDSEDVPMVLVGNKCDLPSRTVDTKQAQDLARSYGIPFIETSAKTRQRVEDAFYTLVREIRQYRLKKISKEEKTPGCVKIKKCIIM
Chain of GDP-bound NRAS wild-type protein (P01111 whole entry): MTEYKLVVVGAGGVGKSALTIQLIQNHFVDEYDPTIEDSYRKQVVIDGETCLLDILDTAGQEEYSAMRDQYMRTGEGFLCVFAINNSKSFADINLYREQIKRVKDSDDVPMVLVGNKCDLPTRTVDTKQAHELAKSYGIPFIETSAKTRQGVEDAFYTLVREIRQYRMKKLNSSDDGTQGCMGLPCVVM

Compound: CC[C@H](C)[C@@H]1NC(=O)[C@H](CC2CC2)N(C)C(=O)C[C@@H](C(=O)N(C)C)N(C)C(=O)[C@H](C2CCCC2)N(C)C(=O)C2(CCCC2)NC(=O)[C@@H]2C[C@H](C)CN2C(=O)[C@H](CCc2cc(F)c(C(F)(F)F)c(F)c2)NC(=O)CN(C)C(=O)[C@H](Cc2ccc(C(F)(F)F)cc2)N2CC/C=C\C[C@@H](C2=O)N(C)C(=O)CN(C)C1=O [PP1511, (2S,8S,12S,14S,20S,23S,27S,30S,36S,38Z)-20-cyclopentyl-27-(cyclopropylmethyl)-8-[2-[3,5-difluoro-4-(trifluoromethyl)phenyl]ethyl]-N,N,4,12,19,22,26,32,35-nonamethyl-30-[(1S)-1-methylpropyl]-3,6,9,15,18,21,25,28,31,34,42-undecaoxo-2-[[4-(trifluoromethyl)phenyl]methyl]spiro[1,4,7,10,16,19,22,26,29,32,35-undecazatricyclo[34.5.1.0^10,14]dotetracont-38-ene-17,1′-cyclopentane]-23-carboxamide]
- Kd [1]: 0.099 nM
- NRAS/KRAS (ratio of KD value for NRAS to KD value for KRAS) [2]: AA (a compound having 20 or more is denoted as AA)
- HRAS/KRAS (ratio of KD value for HRAS to KD value for KRAS) [3]: A (a compound having 10 or more and less than 20 is denoted as A)

Compound: CC[C@H](C)[C@@H]1NC(=O)[C@H](CC2CC2)N(C)C(=O)C[C@@H](C(=O)N2CCCC2)N(C)C(=O)[C@H](C2CCCC2)N(C)C(=O)C2(CCC2)NC(=O)[C@@H]2CC(F)(F)CN2C(=O)[C@H](CCc2cc(F)c(C(F)(F)F)c(F)c2)NC(=O)CN(C)C(=O)[C@H](Cc2ccc(C(F)(F)F)cc2)N2CC/C=C\C[C@@H](C2=O)N(C)C(=O)CN(C)C1=O [PP1512]
- Kd [1]: 0.084 nM
- NRAS/KRAS (ratio of KD value for NRAS to KD value for KRAS) [2]: AA (a compound having 20 or more is denoted as AA)
- HRAS/KRAS (ratio of KD value for HRAS to KD value for KRAS) [3]: A (a compound having 10 or more and less than 20 is denoted as A)

Compound: CC[C@H](C)[C@@H]1NC(=O)[C@H](CC2CC2)N(C)C(=O)C[C@@H](C(=O)N(C)C)N(C)C(=O)[C@H](C2CCCC2)N(C)C(=O)C2(CCCC2)NC(=O)[C@@H]2CC(F)(F)CN2C(=O)[C@H](CCc2cc(F)c(C(F)(F)F)c(F)c2)NC(=O)CN(C)C(=O)[C@H](Cc2ccc(C(F)(F)F)cc2)N2CC/C=C\C[C@@H](C2=O)N(C)C(=O)CN(C)C1=O [PP1513, (2S,8S,14S,20S,23S,27S,30S,36S,38Z)-20-cyclopentyl-27-(cyclopropylmethyl)-8-[2-[3,5-difluoro-4-(trifluoromethyl)phenyl]ethyl]-12,12-difluoro-N,N,4,19,22,26,32,35-octamethyl-30-[(1S)-1-methylpropyl]-3,6,9,15,18,21,25,28,31,34,42-undecaoxo-2-[[4-(trifluoromethyl)phenyl]methyl]spiro[1,4,7,10,16,19,22,26,29,32,35-undecazatricyclo[34.5.1.0^10,14]dotetracont-38-ene-17,1′-cyclopentane]-23-carboxamide]
- Kd [1]: 0.071 nM
- NRAS/KRAS (ratio of KD value for NRAS to KD value for KRAS) [2]: A (a compound having 10 or more and less than 20 is denoted as A)
- HRAS/KRAS (ratio of KD value for HRAS to KD value for KRAS) [3]: A (a compound having 10 or more and less than 20 is denoted as A)

Compound: CCO[C@@H]1C[C@H]2C(=O)NC3(CCC3)C(=O)N(C)[C@@H](C(CC)CC)C(=O)N(C)[C@H](C(=O)N(C)C)CC(=O)N(C)[C@@H](CC3CCCC3)C(=O)N[C@@H]([C@@H](C)CC)C(=O)N(C)CC(=O)N(C)[C@H]3C/C=C\CCN(C3=O)[C@@H](Cc3ccc(F)cc3C)C(=O)N(C)CC(=O)N[C@@H](CCc3cc(F)c(C(F)(F)F)c(F)c3)C(=O)N2C1 [PP1516]
- Kd [1]: 0.98 nM
- NRAS/KRAS (ratio of KD value for NRAS to KD value for KRAS) [2]: A (a compound having 10 or more and less than 20 is denoted as A)
- HRAS/KRAS (ratio of KD value for HRAS to KD value for KRAS) [3]: B (a compound having 3 or more and less than 10 is denoted as B)

Compound: CCO[C@@H]1C[C@H]2C(=O)NC3(CCC3)C(=O)N(C)[C@@H](C(CC)CC)C(=O)N(C)[C@H](C(=O)N(C)C)CC(=O)N(C)[C@@H](CC3CCCC3)C(=O)N[C@@H]([C@@H](C)CC)C(=O)N(C)CC(=O)N(C)[C@H]3C/C=C\CCN(C3=O)[C@@H](Cc3ccc(F)cc3)C(=O)N(C)CC(=O)N[C@@H](CCc3cc(F)c(C(F)(F)F)c(F)c3)C(=O)N2C1 [PP1517]
- Kd [1]: 0.43 nM
- NRAS/KRAS (ratio of KD value for NRAS to KD value for KRAS) [2]: A (a compound having 10 or more and less than 20 is denoted as A)
- HRAS/KRAS (ratio of KD value for HRAS to KD value for KRAS) [3]: A (a compound having 10 or more and less than 20 is denoted as A)

Compound: CCO[C@@H]1C[C@H]2C(=O)NC3(CCC3)C(=O)N(C)[C@@H](C(CC)CC)C(=O)N(C)[C@H](C(=O)N(C)C)CC(=O)N(C)[C@@H](CC(C)C)C(=O)N[C@@H]([C@@H](C)CC)C(=O)N(C)CC(=O)N(C)[C@H]3C/C=C\CCN(C3=O)[C@@H](Cc3ccc(F)cc3C)C(=O)N(C)CC(=O)N[C@@H](CCc3cc(F)c(C(F)(F)F)c(F)c3)C(=O)N2C1 [PP1518]
- Kd [1]: 0.58 nM
- NRAS/KRAS (ratio of KD value for NRAS to KD value for KRAS) [2]: A (a compound having 10 or more and less than 20 is denoted as A)
- HRAS/KRAS (ratio of KD value for HRAS to KD value for KRAS) [3]: B (a compound having 3 or more and less than 10 is denoted as B)

Compound: CCO[C@@H]1C[C@H]2C(=O)NC3(CCC3)C(=O)N(C)[C@@H](C(CC)CC)C(=O)N(C)[C@H](C(=O)N(C)C)CC(=O)N(C)[C@@H](CC(C)C)C(=O)N[C@@H]([C@@H](C)CC)C(=O)N(C)CC(=O)N(C)[C@H]3C/C=C\CCN(C3=O)[C@@H](Cc3ccc(F)cc3)C(=O)N(C)CC(=O)N[C@@H](CCc3cc(F)c(C(F)(F)F)c(F)c3)C(=O)N2C1 [PP1519]
- Kd [1]: 0.41 nM
- NRAS/KRAS (ratio of KD value for NRAS to KD value for KRAS) [2]: A (a compound having 10 or more and less than 20 is denoted as A)
- HRAS/KRAS (ratio of KD value for HRAS to KD value for KRAS) [3]: A (a compound having 10 or more and less than 20 is denoted as A)

Compound: CCO[C@@H]1C[C@H]2C(=O)NC3(CCC3)C(=O)N(C)[C@@H](C(CC)CC)C(=O)N(C)[C@H](C)CC(=O)N(C)[C@@H](CC3CC3)C(=O)N[C@@H]([C@@H](C)CC)C(=O)N(C)CC(=O)N(C)[C@H]3C/C=C\CCN(C3=O)[C@@H](Cc3ccc(F)cc3)C(=O)N(C)CC(=O)N[C@@H](CCc3cc(F)c(C(F)(F)F)c(F)c3)C(=O)N2C1 [PP1521]
- Kd [1]: 2.6 nM
- NRAS/KRAS (ratio of KD value for NRAS to KD value for KRAS) [2]: A (a compound having 10 or more and less than 20 is denoted as A)
- HRAS/KRAS (ratio of KD value for HRAS to KD value for KRAS) [3]: B (a compound having 3 or more and less than 10 is denoted as B)

Compound: CCO[C@@H]1C[C@H]2C(=O)NC3(CCC3)C(=O)N(C)[C@@H](C(CC)CC)C(=O)N(C)[C@H](C)CC(=O)N(C)[C@@H](CC3CCCC3)C(=O)N[C@@H]([C@@H](C)CC)C(=O)N(C)CC(=O)N(C)[C@H]3C/C=C\CCN(C3=O)[C@@H](Cc3ccc(F)cc3C)C(=O)N(C)CC(=O)N[C@@H](CCc3cc(F)c(C(F)(F)F)c(F)c3)C(=O)N2C1 [PP1522]
- Kd [1]: 8.8 nM
- NRAS/KRAS (ratio of KD value for NRAS to KD value for KRAS) [2]: A (a compound having 10 or more and less than 20 is denoted as A)
- HRAS/KRAS (ratio of KD value for HRAS to KD value for KRAS) [3]: A (a compound having 10 or more and less than 20 is denoted as A)

Compound: CCO[C@@H]1C[C@H]2C(=O)NC3(CCC3)C(=O)N(C)[C@@H](C(CC)CC)C(=O)N(C)[C@H](C(=O)N3CCOCC3)CC(=O)N(C)[C@@H](CC3CC3)C(=O)N[C@@H]([C@@H](C)CC)C(=O)N(C)CC(=O)N(C)[C@H]3C/C=C\CCN(C3=O)[C@@H](Cc3ccc(F)cc3C)C(=O)N(C)CC(=O)N[C@@H](CCc3cc(F)c(C(F)(F)F)c(F)c3)C(=O)N2C1 [PP1526]
- Kd [1]: 1.3 nM
- NRAS/KRAS (ratio of KD value for NRAS to KD value for KRAS) [2]: A (a compound having 10 or more and less than 20 is denoted as A)
- HRAS/KRAS (ratio of KD value for HRAS to KD value for KRAS) [3]: A (a compound having 10 or more and less than 20 is denoted as A)

Compound: CCO[C@@H]1C[C@H]2C(=O)NC3(CCC3)C(=O)N(C)[C@@H](C3CCCC3)C(=O)N(C)[C@H](C(=O)N(C)C)CC(=O)N(C)[C@@H](CC3CCCC3)C(=O)N[C@@H]([C@@H](C)CC)C(=O)N(C)CC(=O)N(C)[C@H]3C/C=C\CCN(C3=O)[C@@H](Cc3ccc(F)cc3)C(=O)N(C)CC(=O)N[C@@H](CCc3cc(F)c(C(F)(F)F)c(F)c3)C(=O)N2C1 [PP1531, (2S,8S,12R,14S,20S,23S,27S,30S,36S,38Z)-20-cyclopentyl-27-(cyclopentylmethyl)-8-[2-[3,5-difluoro-4-(trifluoromethyl)phenyl]ethyl]-12-ethoxy-2-[(4-fluorophenyl)methyl]-N,N,4,19,22,26,32,35-octamethyl-30-[(1S)-1-methylpropyl]-3,6,9,15,18,21,25,28,31,34,42-undecaoxo-spiro[1,4,7,10,16,19,22,26,29,32,35-undecazatricyclo[34.5.1.0^10,14]dotetracont-38-ene-17,1′-cyclobutane]-23-carboxamide]
- Kd [1]: 0.12 nM
- NRAS/KRAS (ratio of KD value for NRAS to KD value for KRAS) [2]: A (a compound having 10 or more and less than 20 is denoted as A)
- HRAS/KRAS (ratio of KD value for HRAS to KD value for KRAS) [3]: B (a compound having 3 or more and less than 10 is denoted as B)

Compound: CCO[C@@H]1C[C@H]2C(=O)NC3(CCC3)C(=O)N(C)[C@@H](C3CCCC3)C(=O)N(C)[C@H](C(=O)N(C)C)CC(=O)N(C)[C@@H](CC(C)C)C(=O)N[C@@H]([C@@H](C)CC)C(=O)N(C)CC(=O)N(C)[C@H]3C/C=C\CCN(C3=O)[C@@H](Cc3ccc(F)cc3C)C(=O)N(C)CC(=O)N[C@@H](CCc3cc(F)c(C(F)(F)F)c(F)c3)C(=O)N2C1 [PP1532]
- Kd [1]: 0.19 nM
- NRAS/KRAS (ratio of KD value for NRAS to KD value for KRAS) [2]: A (a compound having 10 or more and less than 20 is denoted as A)
- HRAS/KRAS (ratio of KD value for HRAS to KD value for KRAS) [3]: B (a compound having 3 or more and less than 10 is denoted as B)

Compound: CC[C@H](C)[C@@H]1NC(=O)[C@H](CC2CC2)N(C)C(=O)C[C@@H](C(=O)N(C)C)N(C)C(=O)[C@H](C2CCCC2)N(C)C(=O)C2(CCC2)NC(=O)[C@@H]2[C@@H](OCC(F)F)CCN2C(=O)[C@H](CCc2cc(F)c(C(F)(F)F)c(F)c2)NC(=O)CN(C)C(=O)[C@H](Cc2ccc(C(F)(F)F)cc2)N2CC/C=C\C[C@@H](C2=O)N(C)C(=O)CN(C)C1=O [PP1533]
- Kd [1]: 0.13 nM
- NRAS/KRAS (ratio of KD value for NRAS to KD value for KRAS) [2]: AA (a compound having 20 or more is denoted as AA)
- HRAS/KRAS (ratio of KD value for HRAS to KD value for KRAS) [3]: A (a compound having 10 or more and less than 20 is denoted as A)
